Experimental data as given in patent publication US12077503B2, “Substituted cyclic amides and their use as herbicides” (FMC CORPORATION, priority 2015, dated 2024).

Assays:
Format in all cases: in vivo
[1] = test system: green foxtail (Setaria viridis); test: Test A preemergence; settings: for Foxtail, Green plant response rating: 31 g ai/ha, 0 to 100 scale where 0 is no effect and 100 is complete control; for Plant response rating, Foxtail, Green: 125 g ai/ha, 0 to 100 scale (0 no effect, 100 complete control)
Outline: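 Seeds sprayed preemergence with a directed soil spray, or plants at 2 to 10 cm height and one- to two-leaf stage sprayed postemergence, with test chemicals in a non-phytotoxic solvent mixture containing surfactant, in loam soil–sand blend. Injury rated visually against untreated controls after about 10 d in greenhouse, 0 (no effect) to 100 (complete control).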

[2] = test system: Kochia (Kochia scoparia); test: Test C postemergence; settings: scale 0 to 100, 0 no effect, 100 complete control
From the text: (§1) Seeds of plant species selected from blackgrass (Alopecurus myosuroides), ryegrass, Italian (Italian ryegrass, Lolium multiflorum), wheat (winter wheat, Triticum aestivum), Galium (catchweed bedstraw, Galium aparine), corn (Zea mays), crabgrass, large (large crabgrass, Digitaria sanguinalis), foxtail, giant (giant foxtail, Setaria faberii), johnsongrass (Sorghum halepense), lambsquarters (Chenopodium album), morningglory (Ipomoea coccinea), nutsedge, yellow (yellow nutsedge, Cyperus esculentus), pigweed (Amaranthus retroflexus), ragweed (common ragweed, Ambrosia elatior), soybean (Glycine max), barnyardgrass (Echinochloa crus-galli), oilseed rape (Brassica napus), waterhemp (common waterhemp, Amaranthus rudis) and velvetleaf (Abutilon theophrasti) were planted into a blend of loam soil and sand and treated preemergence with test chemicals formulated in a non-phytotoxic solvent mixture which included a surfactant.
(§2) At the same time, plants selected from these crop and weed species and also Kochia (Kochia scoparia), oat, wild (wild oat, Avena fatua), and chickweed (common chickweed, Stellaria media) were planted in pots containing Sunshine Redi-Earth® planting medium comprising spaghnum peat moss, vermiculite, starter nutrients and dolomitic limestone and treated with postemergence applications of test chemicals formulated in the same manner. Plants ranged in height from 2 to 18 cm (1- to 4-leaf stage) for postemergence treatments. Treated plants and controls were maintained in a greenhouse for 13 to 15 d, after which time all species were compared to controls and visually evaluated. Plant response ratings, summarized in Table C, are based on a scale of 0 to 100 where 0 is no effect and 100 is complete control. A dash (-) response means no test result.

[3] = test system: barnyardgrass (Echinochloa crus-galli); test: Test C postemergence; settings: scale 0 to 100, 0 no effect, 100 complete control
From the text: as §1, §2

[4] = test system: blackgrass (Alopecurus myosuroides); test: Test C postemergence; settings: scale 0 to 100, 0 no effect, 100 complete control
From the text: as §1, §2

[5] = test system: chickweed (common chickweed, Stellaria media); test: Test C postemergence; settings: scale 0 to 100, 0 no effect, 100 complete control
From the text: as §1, §2

[6] = test system: corn (Zea mays); test: Test C postemergence; settings: scale 0 to 100, 0 no effect, 100 complete control
From the text: as §1, §2

[7] = test system: crabgrass, large (large crabgrass, Digitaria sanguinalis); test: Test C postemergence; settings: scale 0 to 100, 0 no effect, 100 complete control
From the text: as §1, §2

[8] = test system: foxtail, giant (giant foxtail, Setaria faberii); test: Test C postemergence; settings: scale 0 to 100, 0 no effect, 100 complete control
From the text: as §1, §2

[9] = test system: johnsongrass (Sorghum halepense); test: Test C postemergence; settings: scale 0 to 100, 0 no effect, 100 complete control
From the text: as §1, §2

[10] = test system: lambsquarters (Chenopodium album); test: Test C postemergence; settings: scale 0 to 100, 0 no effect, 100 complete control
From the text: as §1, §2

[11] = test system: morningglory (Ipomoea coccinea); test: Test C postemergence; settings: scale 0 to 100, 0 no effect, 100 complete control
From the text: as §1, §2

[12] = test system: nutsedge, yellow (yellow nutsedge, Cyperus esculentus); test: Test C postemergence; settings: scale 0 to 100, 0 no effect, 100 complete control
From the text: as §1, §2

[13] = test system: oat, wild (wild oat, Avena fatua); test: Test C postemergence; settings: scale 0 to 100, 0 no effect, 100 complete control
From the text: as §1, §2

[14] = test system: ragweed (common ragweed, Ambrosia elatior); test: Test C postemergence; settings: scale 0 to 100, 0 no effect, 100 complete control
From the text: as §1, §2

[15] = test system: ryegrass, Italian (Italian ryegrass, Lolium multiflorum); test: Test C postemergence; settings: scale 0 to 100, 0 no effect, 100 complete control
From the text: as §1, §2

[16] = test system: velvetleaf (Abutilon theophrasti); test: Test C postemergence; settings: scale 0 to 100, 0 no effect, 100 complete control
From the text: as §1, §2

[17] = test system: waterhemp (common waterhemp, Amaranthus rudis); test: Test C postemergence; settings: scale 0 to 100, 0 no effect, 100 complete control
From the text: as §1, §2

[18] = test system: wheat (winter wheat, Triticum aestivum); test: Test C postemergence; settings: scale 0 to 100, 0 no effect, 100 complete control
From the text: as §1, §2

CN1C[C@H](c2csc3c2CCC(F)(F)C3)[C@@H](C(=O)Nc2cccc(F)c2F)C1=O (racemic) [Compound 1369]
100: Plant response rating, Foxtail, Green [1]
20: Foxtail, Green plant response rating [1]

CN1CC(c2ccc(F)c(F)c2)C(C(=O)Nc2ccccc2S(C)(=O)=O)C1=O (stereo not drawn) [Compound 640]
0: Plant response rating, Barnyardgrass ([3]; 31 g ai/ha) | Plant response rating, Barnyardgrass ([3]; 62 g ai/ha) | Plant response rating, Blackgrass ([4]; 31 g ai/ha) | Plant response rating, Blackgrass ([4]; 62 g ai/ha) | Plant response rating, Blackgrass ([4]; 125 g ai/ha) | Plant response rating, Blackgrass ([4]; 250 g ai/ha) | Plant response rating, Chickweed ([5]; 62 g ai/ha) | Plant response rating, Corn ([6]; 31 g ai/ha) | Plant response rating, Corn ([6]; 62 g ai/ha) | Plant response rating, Corn ([6]; 125 g ai/ha) | Plant response rating, Corn ([6]; 250 g ai/ha) | Plant response rating, Crabgrass, Large ([7]; 31 g ai/ha) | Plant response rating, Crabgrass, Large ([7]; 62 g ai/ha) | Plant response rating, Foxtail, Giant ([8]; 31 g ai/ha) | Plant response rating, Foxtail, Giant ([8]; 62 g ai/ha) | Plant response rating, Johnsongrass ([9]; 31 g ai/ha) | Plant response rating, Johnsongrass ([9]; 62 g ai/ha) | Plant response rating, Johnsongrass ([9]; 125 g ai/ha) | Plant response rating, Johnsongrass ([9]; 250 g ai/ha) | Plant response rating, Nutsedge, Yellow ([12]; 31 g ai/ha) | Plant response rating, Nutsedge, Yellow ([12]; 62 g ai/ha) | Plant response rating, Nutsedge, Yellow ([12]; 125 g ai/ha) | Plant response rating, Oat, Wild ([13]; 31 g ai/ha) | Plant response rating, Oat, Wild ([13]; 62 g ai/ha) | Plant response rating, Oat, Wild ([13]; 125 g ai/ha) | Plant response rating, Ragweed ([14]; 31 g ai/ha) | Plant response rating, Ryegrass, Italian ([15]; 31 g ai/ha) | Plant response rating, Ryegrass, Italian ([15]; 62 g ai/ha) | Plant response rating, Ryegrass, Italian ([15]; 125 g ai/ha) | Plant response rating, Wheat ([18]; 31 g ai/ha) | Plant response rating, Wheat ([18]; 62 g ai/ha) | Plant response rating, Wheat ([18]; 125 g ai/ha) | Plant response rating, Wheat ([18]; 250 g ai/ha)
5: Plant response rating, Oat, Wild ([13]; 250 g ai/ha) | Plant response rating, Ryegrass, Italian ([15]; 250 g ai/ha) | Plant response rating, Velvetleaf ([16]; 31 g ai/ha) | Plant response rating, Waterhemp ([17]; 31 g ai/ha)
65: Plant response rating, Foxtail, Giant ([8]; 250 g ai/ha)
60: Plant response rating, Chickweed ([5]; 125 g ai/ha)
70: Plant response rating, Lambsquarters ([10]; 125 g ai/ha) | Plant response rating, Velvetleaf ([16]; 62 g ai/ha)
35: Plant response rating, Chickweed ([5]; 250 g ai/ha) | Plant response rating, Crabgrass, Large ([7]; 250 g ai/ha) | Plant response rating, Morningglory ([11]; 31 g ai/ha)
30: Plant response rating, Kochia ([2]; 62 g ai/ha) | Plant response rating, Kochia ([2]; 125 g ai/ha) | Plant response rating, Lambsquarters ([10]; 31 g ai/ha) | Plant response rating, Ragweed ([14]; 125 g ai/ha) | Plant response rating, Velvetleaf ([16]; 250 g ai/ha) | Plant response rating, Waterhemp ([17]; 250 g ai/ha)
10: Plant response rating, Barnyardgrass ([3]; 125 g ai/ha) | Plant response rating, Barnyardgrass ([3]; 250 g ai/ha) | Plant response rating, Crabgrass, Large ([7]; 125 g ai/ha) | Plant response rating, Foxtail, Giant ([8]; 125 g ai/ha) | Plant response rating, Nutsedge, Yellow ([12]; 250 g ai/ha) | Plant response rating, Waterhemp ([17]; 125 g ai/ha)
20: Plant response rating, Kochia ([2]; 31 g ai/ha) | Plant response rating, Lambsquarters ([10]; 62 g ai/ha) | Plant response rating, Waterhemp ([17]; 62 g ai/ha)
75: Plant response rating, Kochia ([2]; 250 g ai/ha)
55: Plant response rating, Morningglory ([11]; 125 g ai/ha) | Plant response rating, Ragweed ([14]; 250 g ai/ha)
40: Plant response rating, Lambsquarters ([10]; 250 g ai/ha) | Plant response rating, Morningglory ([11]; 62 g ai/ha) | Plant response rating, Morningglory ([11]; 250 g ai/ha)
25: Plant response rating, Chickweed ([5]; 31 g ai/ha) | Plant response rating, Ragweed ([14]; 62 g ai/ha) | Plant response rating, Velvetleaf ([16]; 125 g ai/ha)

CN1C[C@H](c2csc3c2CCC(F)(F)C3)[C@@H](C(=O)Nc2ccc(F)c(F)c2F)C1=O (racemic) [Compound 1368]
100: Plant response rating, Foxtail, Green [1]
0: Foxtail, Green plant response rating [1]
